Source: PMC4738305, “Metabolism and Disposition of Aditoprim in Swine, Broilers, Carp and Rats” (Scientific Reports, 2016)
Like-named read-outs stand apart in the source and are kept apart here.

How the values were obtained:
[1] = Concentration and elimination of ADP and its metabolites in liver, kidney, muscle, fat/skin after oral ^3H-ADP for 7 d; format: in vivo, rats; details: for half-life: po; for concentration at 0.25 d / concentration at 1 d / concentration at 3 d / concentration at 7 d / concentration at 14 d: oral
Method: (§1) A total of 36 animals from each species (swine n = 24) were randomly assigned to six equal treatment groups and administered a single daily dose of ^3 H-ADP at 5 mg/kg b. w. (0.1 Ci/g) through oral gavage for 7 consecutive days. All the animals were housed on the basis of their group in the cages or aquaria throughout the whole study period. A group of animals was slaughtered through exsanguination under diethyl ether inhalation of anesthesia in the period of 6 h, 1, 3, 7, 14, and 21 d after the administration. The blood samples were immediately collected into the heparinized tubes and was centrifuged at 1920 × g at 4 °C for 10 min to obtain the plasma. The tissues from the heart, liver, spleen, lung, kidney, craw (broilers), stomach, intestine, fat, skin, muscle, thymus, pancreas, bile, bladder, hair (scale for carp), genital gland, adrenal glands, swim bladder (carp), brain, lymph, and bursa (broilers) were carefully excised and collected. The tissues were thoroughly rinsed with the deionized water to remove the residuary blood, blotted to dryness, and finally to perform the homogenization. In order to avoid cross-contamination the dissecting instruments were washed during the tissue procurements. The blank tissues were collected in order to provide control matrices. The total radioactivity levels in each sample were determined through LSC. The samples extracted from the plasma, bile, and tissues of the liver, kidney, muscle, and fat/skin were analyzed through LC/MS-IT-TOF and v. ARC radiometric detection for metabolite profiling. The blank samples were used as control to determine the background radioactivity or the endogenous nondrug-related ions observed within respective matrices or their extracts.
(§2) The feces and tissues (2 g) were diluted with a mixture of methanol and chloroform (1:3, v:v; 2 mL/g homogenate). This procedure was carried out in a fume hood for the safety aspects. The pH value was adjusted to 9.0 with NH4OH. The mixture was vortexed and sonicated for 5 min and 10 min, respectively, and finally the samples were centrifuged at 7690 × g for 10 min. The supernatant was aspirated and then transferred into a new centrifuge tube. The obtained pellet was again subjected to the same process of vortex, ultrasonication, extraction, and centrifugation. The combined supernatant was concentrated under a stream of nitrogen in a water bath at 40 °C. The residue was reconstituted with 0.3 mL of methanol–water (1:9, v:v) before the injection into the LC-v. ARC/MS-IT-TOF system for analysis.
(§3) ADP and its metabolites in the prepared samples were determined with a v. ARC radiometric detector and a hybrid IT/TOF mass spectrometer connected to the HPLC system (Shimadzu Corp., Kyoto, Japan). The LC system was equipped with a solvent delivery pump (LC-20AD), an auto-sampler (SIL-20AC), a degasser (DGU-20 A 3), a photodiode array detector (SPD-M20A), a communication base module (CBM-20 A), and a column oven (CTO-20AC). The chromatographic separation was achieved by using an Agilent extend-C18 column (2.1 mm × 150 mm, 5 μm) with a gradient mobile phase of A (0.01% ammonia and 5 mM ammonium acetate in water) and B (methanol) at a flow rate of 0.2 mL/min. The column temperature was maintained at 35 °C. Various HPLC methods were performed because of the large number of different metabolites to be analyzed. For the porcine sample, method 1 started at 5% B and increased to 20% B over 35 min, then to 55% B by 60 min, followed by re-equilibration for another 10 min. For the remaining samples, method 2 started at 10% B and increased to 60% B over 30 min, subsequently was maintained at 60% B for an additional 10 min, and then changed to 90% B over 2 min and maintained for 2 min. Afterwards, a re-equilibration step (decreased to 10% B over 1 min and maintained at 10% B for additional 9 min) was followed. For each matrix, more than 98% of the radioactivity injected into the column was eluted during the running time of the gradient program. […]

[2] = as above; format: in vivo, carp; details: for concentration at 0.25 d / concentration at 1 d / concentration at 3 d / concentration at 7 d / concentration at 14 d / concentration at 21 d: carp, oral; for half-life: po
Method: as §1, §2, §3

[3] = rat kidney, after 5 mg/kg b. w. for 7 days, read-out: t1/2 of the individual compound (converted)
[4] = rat liver, after 5 mg/kg b. w. for 7 days, read-out: t1/2 of the individual compound (converted)

SMILES: COc1cc(Cc2cnc(N)nc2N)cc(OC)c1N [A2, N-didesmethyl-ADP]
- half-life [1, 3]: 16.8 h
- half-life [1, 4]: 38.6 h
- concentration at 0.25 d ([1]; rat, kidney, 5 mg/kg b.w.): 370 ± 130 ng/g
- concentration at 1 d ([1]; rat, kidney, 5 mg/kg b.w.): 120 ± 30 ng/g
- concentration at 3 d ([1]; rat, kidney, 5 mg/kg b.w.): 20 ng/g
- concentration at 0.25 d ([1]; rat, liver, 5 mg/kg b. w.): 230 ± 60 ng/g
- concentration at 1 d ([1]; rat, liver, 5 mg/kg b. w.): 120 ± 20 ng/g
- concentration at 3 d ([1]; rat, liver, 5 mg/kg b. w.): 60 ± 20 ng/g
- concentration at 0.25 d ([1]; rat, muscle, 5 mg/kg b.w.): 40 ± 10 ng/g
- concentration at 0.25 d ([2]; kidney, 5 mg/kg b.w.): 780 ± 160 ng/g
- concentration at 1 d ([2]; kidney, 5 mg/kg b.w.): 60 ± 10 ng/g
- concentration at 0.25 d ([2]; liver, 5 mg/kg b. w.): 440 ± 60 ng/g
- concentration at 1 d ([2]; liver, 5 mg/kg b. w.): 240 ± 40 ng/g
- concentration at 0.25 d ([2]; skin, 5 mg/kg b. w.): 70 ± 10 ng/g
- concentration at 1 d ([2]; skin, 5 mg/kg b. w.): 50 ± 10 ng/g

SMILES: COc1cc(Cc2cnc(N)nc2N)cc(OC)c1N(C)C [A0, 2,4-Diamino-5-[4-(dimethylamino)-3,5-dimethoxybenzyl] pyrimidine]
- half-life ([1]; rat fat, after 5 mg/kg b. w. for 7 days, read-out: t1/2 of the individual compound (converted)): 62.2 h
- half-life [1, 3]: 76.8 h
- half-life [1, 4]: 100 h
- half-life ([1]; rat muscle, after 5 mg/kg b. w. for 7 days, read-out: t1/2 of the individual compound (converted)): 70.8 h
- concentration at 0.25 d ([1]; rat, fat, 5 mg/kg b. w.): 290 ± 100 ng/g
- concentration at 1 d ([1]; rat, fat, 5 mg/kg b. w.): 150 ± 30 ng/g
- concentration at 3 d ([1]; rat, fat, 5 mg/kg b. w.): 80 ± 10 ng/g
- concentration at 7 d ([1]; rat, fat, 5 mg/kg b. w.): 30 ng/g
- concentration at 0.25 d ([1]; rat, kidney, 5 mg/kg b.w.): 3800 ± 1550 ng/g
- concentration at 1 d ([1]; rat, kidney, 5 mg/kg b.w.): 1130 ± 430 ng/g
- concentration at 3 d ([1]; rat, kidney, 5 mg/kg b.w.): 590 ± 110 ng/g
- concentration at 7 d ([1]; rat, kidney, 5 mg/kg b.w.): 350 ± 80 ng/g
- concentration at 14 d ([1]; rat, kidney, 5 mg/kg b.w.): 60 ± 10 ng/g
- concentration at 0.25 d ([1]; rat, liver, 5 mg/kg b. w.): 6140 ± 1890 ng/g
- concentration at 1 d ([1]; rat, liver, 5 mg/kg b. w.): 2830 ± 520 ng/g
- concentration at 3 d ([1]; rat, liver, 5 mg/kg b. w.): 1020 ± 270 ng/g
- concentration at 7 d ([1]; rat, liver, 5 mg/kg b. w.): 560 ± 120 ng/g
- concentration at 14 d ([1]; rat, liver, 5 mg/kg b. w.): 170 ± 30 ng/g
- concentration at 0.25 d ([1]; rat, muscle, 5 mg/kg b.w.): 1020 ± 480 ng/g
- concentration at 1 d ([1]; rat, muscle, 5 mg/kg b.w.): 700 ± 210 ng/g
- concentration at 3 d ([1]; rat, muscle, 5 mg/kg b.w.): 380 ± 90 ng/g
- concentration at 7 d ([1]; rat, muscle, 5 mg/kg b.w.): 170 ± 40 ng/g
- half-life ([1]; rat, tissues (liver, kidney, muscle, fat/skin), 5 mg/kg, rats tissues, read-out: t1/2 of the individual compound, range over tissues): 62.2 to 100 h
- share of the sample radioactivity in the detected tissues ([1]; rats liver, kidney, muscle, fat, over the sampling times): more than 42%
- share of the sample radioactivity in the detected tissues ([2]; carp liver, kidney, muscle, skin, over the sampling times): more than 42%
- concentration at 0.25 d ([2]; kidney, 5 mg/kg b.w.): 38900 ± 8000 ng/g
- concentration at 1 d ([2]; kidney, 5 mg/kg b.w.): 6470 ± 1250 ng/g
- concentration at 3 d ([2]; kidney, 5 mg/kg b.w.): 3010 ± 550 ng/g
- concentration at 7 d ([2]; kidney, 5 mg/kg b.w.): 1190 ± 80 ng/g
- concentration at 14 d ([2]; kidney, 5 mg/kg b.w.): 680 ± 80 ng/g
- concentration at 21 d ([2]; kidney, 5 mg/kg b.w.): 90 ± 20 ng/g
- concentration at 0.25 d ([2]; liver, 5 mg/kg b. w.): 13200 ± 3700 ng/g
- concentration at 1 d ([2]; liver, 5 mg/kg b. w.): 5750 ± 950 ng/g
- concentration at 3 d ([2]; liver, 5 mg/kg b. w.): 2370 ± 470 ng/g
- concentration at 7 d ([2]; liver, 5 mg/kg b. w.): 390 ± 100 ng/g
- concentration at 14 d ([2]; liver, 5 mg/kg b. w.): 260 ± 40 ng/g
- concentration at 21 d ([2]; liver, 5 mg/kg b. w.): 90 ± 10 ng/g
- concentration at 0.25 d ([2]; muscle, 5 mg/kg b.w.): 1960 ± 530 ng/g
- concentration at 1 d ([2]; muscle, 5 mg/kg b.w.): 1690 ± 410 ng/g
- concentration at 3 d ([2]; muscle, 5 mg/kg b.w.): 870 ± 180 ng/g
- concentration at 7 d ([2]; muscle, 5 mg/kg b.w.): 410 ± 90 ng/g
- concentration at 14 d ([2]; muscle, 5 mg/kg b.w.): 60 ± 10 ng/g
- concentration at 0.25 d ([2]; skin, 5 mg/kg b. w.): 3040 ± 520 ng/g
- concentration at 1 d ([2]; skin, 5 mg/kg b. w.): 2320 ± 670 ng/g
- concentration at 3 d ([2]; skin, 5 mg/kg b. w.): 1330 ± 150 ng/g
- concentration at 7 d ([2]; skin, 5 mg/kg b. w.): 800 ± 160 ng/g
- concentration at 14 d ([2]; skin, 5 mg/kg b. w.): 60 ± 10 ng/g
- half-life ([2]; carp kidney, after 5 mg/kg b. w. for 7 days, read-out: t1/2 of the individual compound (converted)): 89.3 h
- half-life ([2]; carp liver, after 5 mg/kg b. w. for 7 days, read-out: t1/2 of the individual compound (converted)): 159 h
- half-life ([2]; carp muscle, after 5 mg/kg b. w. for 7 days, read-out: t1/2 of the individual compound (converted)): 68.9 h
- half-life ([2]; carp skin, after 5 mg/kg b. w. for 7 days, read-out: t1/2 of the individual compound (converted)): 57.6 h
- half-life ([2]; tissues (liver, kidney, muscle, fat/skin), 5 mg/kg, carp tissues, read-out: t1/2 of the individual compound, range over tissues): 57.6 to 159 h
